PMC12607321, “Sumac Polyphenols as Pan-Herpesvirus Inhibitors” (International Journal of Molecular Sciences, 2025)
Values after ≈ are worked out from the molar mass of the structure shown. Values joined by “and” are separate entries in the source; they are usually repeats but may differ in a detail not shown here. Equal values may be shown once. Read-outs that look alike come from different tables or passages of the source.

Columns and labels:
MDCK cells = conditions: MTT
B95-8 cells = assay: Cytotoxicity (MTT) in B95-8 cells; type: cell-based, cotton-top tamarin (Saguinus oedipus); conditions: B95-8 cells, MTT, 72 h
Description: (§1) In each virus–cell system, cytotoxicity ranges were determined for polyphenols and reference compounds using MTT assay. Half-maximal cytotoxic concentrations (CC50) were determined from the curves of the dependence of the proportion of cells retaining viability after incubation with the compound (relative to the number of cells incubated in the absence of the compound) on its concentration, using nonlinear regression equations (4 parameters).
(§2) To assess cytotoxicity, B95-8 cells (5 × 10^5 per 1 mL) were incubated with polyphenols at 37 °C in an atmosphere of 5% CO2 for 72 h. The experiment was then carried out as described in Section 4.3.5.

Vero E6 cells = assay: Cytotoxicity (MTT) in Vero E6 cells (HSV system); type: cell-based
HSV-1L2 = assay: Antiviral activity in Vero E6 cells infected with HSV-1 (cytopathic effect); type: cell-based
[1] = test system: influenza A virus/California/07/2009 (H1N1) pdm; assay: microbe, parasite or virus in culture; type: cell-based; conditions: for IC50: IAV H1N1pdm in MDCK cells
HSV-2BH = assay: Antiviral activity in Vero E6 cells infected with HSV-2 (cytopathic effect); type: cell-based
in vitro [2] = conditions: human
HIV-1 (HIVIIIB) = assay: microbe, parasite or virus in culture; type: cell-based; conditions: Human immunodeficiency virus 1, MT4; HIV-1 IIIB in MT-4 cells
[3] = Cytotoxicity (MTT) in Vero E6 cells (HSV system); type: cell-based; conditions: African green monkey
CMV (strain AD169) [4] = assay: Anti-CMV, post-inoculation setup: inhibition of intracellular replication (cells stained for viral proteins) in HELF; type: cell-based, human cytomegalovirus
EBVB95-8 = assay: Inhibition of EBV replication in B95-8 cells (EBV genomic DNA, real-time PCR); type: cell-based, Epstein–Barr virus; conditions: for IC50: human gammaherpesvirus 4, B-95-8, 48 h, read-out: IC50, Inhibition on EBV Replication
[5] = Cytotoxicity (MTT) in B95-8 cells; type: cell-based, cotton-top tamarin (Saguinus oedipus); conditions: cotton-top tamarin (Saguinus oedipus)
Description: as §1, §2

CMV (strain AD169) [6] = assay: Anti-CMV, post-inoculation setup: inhibition of infectious virus production (plaques from conditioned medium) in HELF; type: cell-based, human cytomegalovirus
in vitro [7] = conditions: human; remark: listed apart in the source
CMV (strain AD169) [8] = assay: Anti-CMV, pre-inoculation setup (plaques) in HELF; type: cell-based, human cytomegalovirus
HIV-1 = test system: HIV-1; parameters: method as in ref 103 (Notka et al.); conditions: ref 103 (Notka et al.); cited from earlier work
[9] = Cytotoxicity (MTT) in Vero E6 cells (SARS-CoV-2 system); type: cell-based; conditions: African green monkey
Description: First, we performed biological testing of Rutan and geraniin against IAV and SARS-CoV-2. […] In addition, we evaluated geraniin against SARS-CoV-2 (in Vero E6 cells), and HIV-1 (in MT-4 cells) to confirm its activity. In all experiments three parameters were determined: concentrations of a drug that suppressed virus replication (IC50) or decreased cell viability (CC50) by 50% as well as their ratio—the selectivity index (SI, CC50/IC50 [123]).
as §1

in vitro [10] = conditions: dog
[11] = test system: SARS-CoV-2 (HCoV-19/Russia/Moscow-PMVL-12/2020, EPI_ SL_572398); assay: microbe, parasite or virus in culture; type: cell-based; conditions: for IC50: Severe acute respiratory syndrome coronavirus 2, Vero C1008; for Δ(lgTCID50)max: maximum difference in virus titers, Vero E6 cells
IAV = conditions: cited from earlier work
SARS-CoV-2 = test system: SARS-CoV-2; parameters: method as in doi:10.2139/ssrn.4000447; conditions: geraniin isolated from Elaeocarpus sylvestris; cited from earlier work
[12] = Cytotoxicity (MTT) in HELF cells; conditions: human
CMVTowne strain = test system: CMVTowne strain; parameters: method as in ref 35 (Kim et al.); conditions: human foreskin fibroblasts, ref 35 (Kim et al.); cited from earlier work
[13] = Human alphaherpesvirus 1, Vero C1008, HSV-1L2, Vero E6, 0.1 PFU/cell, read-out: IC50
[14] = Human alphaherpesvirus 2, Vero C1008, HSV-2BH, Vero E6, 0.1 PFU/cell, read-out: IC50
[15] = Human betaherpesvirus 5, post-inoculation setup, CMV AD169 in HELF
[16] = Influenza A virus, H1N1, read-out: IC50
[17] = Human betaherpesvirus 5, AD169, HELF

## 2,4-bis-O-galloyl-1,3,6-tri-O-galloyl-β-D-glucose [R7]
MDCK cells
  CC50: 191.01 µg/mL
B95-8 cells
  CC50: 33 µg/mL
Vero E6 cells
  CC50: 165.00 µg/mL
HSV-1L2
  IC50: 5.95 µg/mL
  IC95: 8.32 µg/mL
[1]
  Δ(lgTCID50)max: 2.75
  IC50: 2.13 µg/mL
HSV-2BH
  IC50: 8.32 µg/mL
  IC95: 31.25 µg/mL

## Cc1cn([C@H]2C[C@H](N=[N+]=[N-])[C@@H](CO)O2)c(=O)[nH]c1=O [Azidothymidine, reference compound]
In vitro [2]
  CC50: 3.6 µg/mL (≈ 13.5 µM)
HIV-1 (HIVIIIB)
  IC50: 0.002 µg/mL (≈ 0.00748 µM)

## O=C(O)P(=O)(O)O [Foscarnet, reference compound]
[3]
  CC50: > 125 µg/mL
HSV-1L2; HSV-1L2, Vero E6, 0.1 PFU/cell
  IC95: 62.5 µg/mL (≈ 496 µM)
HSV-1L2; [13]
  IC50: 15.6 µg/mL (≈ 124 µM)
HSV-2BH; HSV-2BH, Vero E6, 0.1 PFU/cell
  IC95: 31.25 µg/mL (≈ 248 µM)
HSV-2BH; [14]
  IC50: 7.8 µg/mL (≈ 61.9 µM)

## Nc1nc(O)c2ncn(COC(CO)CO)c2n1 [Ganciclovir, reference compound]
CMV (strain AD169) [4]; [15]
  IC50: 0.22 µg/mL (≈ 0.862 µM)
EBVB95-8
  IC50: 100 µg/mL (≈ 392 µM)
[5]
  CC50 at 72 h: > 1000 µg/mL
CMV (strain AD169) [6]; [15]
  IC50: < 0.1 µg/mL
In vitro [7]
  CC50 at 72 h: 185 µg/mL (≈ 725 µM)
CMV (strain AD169) [8]; pre-inoculation setup, CC50/IC50
  SI, Pre-Inoculation Setup: No activity
CMV (strain AD169) [8]; pre-inoculation setup, CMV AD169 in HELF
  IC50, Pre-Inoculation Setup: No activity

## O=C1O[C@H]2C3OC(=O)c4cc(O)c(O)c(O)c4-c4c(cc(O)c(O)c4O)C(=O)OC[C@H]2O[C@@H](OC(=O)c2cc(O)c(O)c(O)c2)[C@@H]3OC(=O)c2cc(O)c(O)c3c2[C@@H]2C1=CC(=O)[C@](O)(O3)C2(O)O [Geraniin, (1R,7R,26R,28S,29R,38R)-1,13,14,15,18,19,20,34,35,39,39-Undecahydroxy-2,5,10,23,31-pentaoxo-6,9,24,27,30,40-hexaoxaoctacyclo [34.3.1.0~4,38~.0~7,26~.0~8,29~.0~11,16~.0~17, 22~.0~32,37~]tetraconta-3,11,1 3,15,17,19,21,32,34,36-decaen-28-yl 3,4,5-trihydroxybenzoate]
HIV-1
  IC50: 0.46 µg/mL (≈ 0.483 µM)
CMV (strain AD169) [4]; CMV AD169 in HELF
  activity against CMV (in words): did not interfere
EBVB95-8; B95-8 cells
  activity against EBV (in words): did not interfere
[5]; B95-8 cells, MTT, 72 h, read-out: CC50
  CC50 at 72 h: 63 µg/mL (≈ 66.1 µM)
[9]
  CC50: 65.4 µg/mL (≈ 68.7 µM)
In vitro [10]
  CC50: 288 µg/mL (≈ 302 µM)
In vitro [2]
  CC50: 41 µg/mL (≈ 43 µM)
[3]
  CC50: 65.9 µg/mL (≈ 69.2 µM)
[11]; SARS-CoV-2 in Vero E6 cells, read-out: IC50
  IC50: 5.2 µg/mL (≈ 5.46 µM)
[11]
  Δ(lgTCID50)max: 4.75
HSV-1L2; HSV-1L2, Vero E6, 0.1 PFU/cell
  IC95: 1.56 µg/mL (≈ 1.64 µM)
HSV-1L2; [13]
  IC50: 1.2 µg/mL (≈ 1.26 µM)
IAV; ref 72 (Joo et al.)
  result for geraniin against IAV compared with IC50: 5.3 µg/mL
IAV; ref 96 (Choi et al.)
  result for geraniin against IAV compared with IC50: 34 µg/mL
[1]
  Δ(lgTCID50)max: 4.5
[1]; [16]
  IC50: 10.8 µg/mL (≈ 11.4 µM)
HSV-2BH; HSV-2BH, Vero E6, 0.1 PFU/cell
  IC95: 6.25 µg/mL (≈ 6.56 µM)
HSV-2BH; [14]
  IC50: 0.39 µg/mL (≈ 0.409 µM)
HIV-1 (HIVIIIB)
  IC50: 1.6 µg/mL (≈ 1.68 µM)
SARS-CoV-2
  concentration range suppressing virus replication: 1 to 25 µg/mL

## CC(C)(C)[C@H](NC(=O)C(F)(F)F)C(=O)N1C[C@H]2[C@@H]([C@H]1C(=O)N[C@H](C#N)C[C@@H]1CCNC1=O)C2(C)C [Nirmatrelvir, reference compound]
[9]
  CC50: > 20 µg/mL
[11]
  IC50: 0.1 µg/mL (≈ 0.2 µM)
  Δ(lgTCID50)max: 6.0

## CCOC(=O)C1=C[C@@H](OC(CC)CC)[C@H](NC(C)=O)[C@@H](N)C1 [Oseltamivir, reference compound]
In vitro [10]
  CC50: > 10 µg/mL
[1]
  Δ(lgTCID50)max: 6.0
[1]; [16]
  IC50: 0.02 µg/mL (≈ 0.064 µM)

## O=C(OC[C@H]1O[C@@H](OC(=O)c2cc(O)c(O)c(O)c2)[C@H](OC(=O)c2cc(O)c(O)c(O)c2)[C@@H](OC(=O)c2cc(O)c(O)c(O)c2)[C@@H]1OC(=O)c1cc(O)c(O)c(O)c1)c1cc(O)c(O)c(O)c1 [R5, 1,2,3,4,6-penta-O-galloyl-β-D-glucose]
CMV (strain AD169) [4]
  reduction of the number of infected HELF: 71% and 86%
CMV (strain AD169) [4]; [17]
  IC50: 7.4 µg/mL (≈ 7.87 µM)
EBVB95-8; 10 μg/mL, 48 h, B95-8 cells
  decrease of the level of intracellular viral DNA: 39 ± 5%
EBVB95-8
  IC50: > 10 µg/mL
B95-8 cells
  CC50: 85 µg/mL (≈ 90.4 µM)
CMV (strain AD169) [6]; [17]
  IC50: 6.4 µg/mL (≈ 6.8 µM)
In vitro [10]
  CC50: 86.3 µg/mL (≈ 91.8 µM)
[3]
  CC50: 188 µg/mL (≈ 200 µM)
[12]
  CC50 at 72 h: 150 µg/mL (≈ 159 µM)
HSV-1L2
  IC95: 25.0 µg/mL (≈ 26.6 µM)
HSV-1L2; Human alphaherpesvirus 1, Vero C1008, read-out: IC50
  IC50: 12.5 µg/mL (≈ 13.3 µM)
[1]
  Δ(lgTCID50)max: 1.5
[1]; [16]
  IC50: 8.85 µg/mL (≈ 9.41 µM)
HSV-2BH
  IC95: 25.0 µg/mL (≈ 26.6 µM)
HSV-2BH; Human alphaherpesvirus 2, Vero C1008, read-out: IC50
  IC50: 12.5 µg/mL (≈ 13.3 µM)
CMVTowne strain
  activity against CMV (in words): failed to detect the activity
CMV (strain AD169) [8]; [17]
  IC50: 2.2 µg/mL (≈ 2.34 µM)

## O=C(OC[C@H]1O[C@@H](OC(=O)c2cc(O)c(O)c(O)c2)[C@H](OC(=O)c2cc(O)c(O)c(O)c2)[C@@H](OC(=O)c2cc(O)c(O)c(OC(=O)c3cc(O)c(O)c(O)c3)c2)[C@@H]1OC(=O)c1cc(O)c(O)c(O)c1)c1cc(O)c(O)c(O)c1 [R6, 3-bis-O-galloyl-1,2,4,6-tetra-O-galloyl-β-D-glucose]
MDCK cells
  CC50: 93.13 µg/mL (≈ 85.2 µM)
B95-8 cells
  CC50: >20 µg/mL
Vero E6 cells
  CC50: 69.62 µg/mL (≈ 63.7 µM)
HSV-1L2; HSV-1L2, Vero E6, 0.1 PFU/cell
  IC50: 25.0 µg/mL (≈ 22.9 µM)
  IC95: >25.0 µg/mL
[1]
  Δ(lgTCID50)max: 1.0
  IC50: >50 µg/mL
HSV-2BH; HSV-2BH, Vero E6, 0.1 PFU/cell
  IC50: 31.25 µg/mL (≈ 28.6 µM)
  IC95: 50.0 µg/mL (≈ 45.8 µM)

## O=C(OC[C@H]1O[C@@H](OC(=O)c2cc(O)c(O)c(O)c2)[C@H](OC(=O)c2cc(O)c(O)c(OC(=O)c3cc(O)c(O)c(O)c3)c2)[C@@H](OC(=O)c2cc(O)c(O)c(OC(=O)c3cc(O)c(O)c(O)c3)c2)[C@@H]1OC(=O)c1cc(O)c(O)c(OC(=O)c2cc(O)c(O)c(O)c2)c1)c1cc(O)c(O)c(O)c1 [R8, 2,3,4-bis-O-galloyl-1,6-di-O-galloyl-β-D-glucose]
MDCK cells
  CC50: 233 µg/mL (≈ 167 µM)
B95-8 cells
  CC50: >20 µg/mL
Vero E6 cells
  CC50: 106.00 µg/mL (≈ 75.9 µM)
HSV-1L2; HSV-1L2, Vero E6, 0.1 PFU/cell
  IC50: 10.0 µg/mL (≈ 7.16 µM)
  IC95: 31.25 µg/mL (≈ 22.4 µM)
[1]
  Δ(lgTCID50)max: 4.25
  IC50: 0.8 µg/mL (≈ 0.573 µM)
HSV-2BH; HSV-2BH, Vero E6, 0.1 PFU/cell
  IC50: 31.25 µg/mL (≈ 22.4 µM)
  IC95: 62.5 µg/mL (≈ 44.7 µM)
